Results: patent publication US20220331341A1, “TREATMENT COMPRISING THE USE OF FXR AGONISTS” (Novartis AG, priority 2019, published 2022)

Key:
[1] = tested on: NASH patients; assay: Study CLJN452A2202 Parts A and B, 12 weeks; assay type: in vivo, human
[2] = tested on: HF/NASH mice (hepatic oxidative stress and mitochondrial function); assay: Dietary HF/NASH mouse model, tropifexor treatment for the last 12 of 20 weeks; assay type: in vivo, C57BL/6J mice
From the text: Molecular, structural and functional analysis was applied to assess oxidative stress and mitochondria function in NASH model.
Similar to human disease, transition from steatosis to NASH with fibrosis in NASH mice is associated with mitochondrial dysfunction characterized by structural and functional alterations. Decline in hepatic mitochondrial function is manifested in HF/NASH mice by decreased activities of tricarboxylic acid (TCA) cycle and electron transport chain (ETC) as well as diminished ATP production. This is accompanied by oxidative damage and depletion of antioxidant enzymes. […] This was manifested by a marked increase in mitochondrial function with concomitant restoration of oxidative balance associated with increased antioxidant defenses and decreased oxidative stress.

[3] = tested on: patients with biopsy-proven NASH and fibrosis stages 2-3; assay: FLIGHT-FXR (NCT02855164) Part C interim analysis at week 12; assay type: in vivo, human; details: for ALT, LS mean absolute change from baseline to Week 12 (SE) / Body weight, LS mean absolute change from baseline to Week 12 (SE) / GGT, LS mean absolute change from baseline to Week 12 (SE): full analysis set
From the text: Prespecified endpoints assessed at week 12 included overall safety and changes in alanine aminotransferase (ALT), hepatic fat fraction (HFF), gamma glutamyl transferase (GGT), and body weight.

`O=C(O)c1cc(F)c2nc(N3C4CC[C@H]3CC(OCc3c(-c5ccccc5OC(F)(F)F)noc3C3CC3)C4)sc2c1` (stereo partly drawn) [Tropifexor, 2-[(1R,3r,5S)-3-({5-cyclopropyl-3-[2-(trifluoromethoxy)phenyl]-1,2-oxazol-4-yl}methoxy)-8-azabicyclo[3.2.1]octan-8-yl]-4-fluoro-1,3-benzothiazole-6-carboxylic acid] was tested, and the “Biologic activity (GGT)” value ([1]; 10 to 90 μg daily for 12 weeks) was “clear dose response”, the “Target engagement (FGF19)” value ([1]; 10 to 90 μg daily for 12 weeks) was “clear dose response” and the “ALT and hepatic fat fraction compared to placebo” value ([1]; all doses (10, 30, 60 and 90 μg), 12 weeks) was “reduced”. For the same molecule, the Tolerability ([1]; up to 90 μg daily) was “generally well tolerated”, the “Liver SOD activity” value ([2]; 0.3 mg/kg) was “fully restored” and the “GPx activity in serum and liver” value ([2]; 0.9 mg/kg) was “restored”. For the same molecule, the “Liver SOD activity” value ([2]; 0.9 mg/kg) was “increased above the levels observed in ND mice”, the “Cell death (apoptosis) in liver: cleaved-caspase 3 staining and phospho-p38 protein levels” value ([2]; 20 weeks HF/NASH diet) was “attenuated cell death in a dose dependent manner” and the ATP synthesis ([2]; HF/NASH livers) was “improving”. The “Citrate synthase (CS) activity” value ([2]; HF/NASH livers) was “dose-dependently restored”, the “Complex I and Complex II activities” value ([2]; HF/NASH livers) was “restoring” and the “Content of all five respiratory chain (OXPHOS) proteins” value ([2]; HF/NASH livers, 0.1 mg/kg) was “full restoration”. The “Expression of mitochondrial biogenesis genes (PGC-1a, Nrf1, Tfam)” value ([2]; HF/NASH mice) was “did not lead to changes”, the “Levels of oxidative stress in HF/NASH livers (MDA, 4-HNE, mtDNA)” value ([2]; liver) was “markedly decreased” and the “Antioxidant gene expression (GPx and GST superfamilies)” value ([2]; liver transcriptome) was “induced”. The “Expression of Gpx2, Gst family” value ([2]; liver transcriptome) was “markedly increased their expression beyond the ND levels”, the “Expression of Gpx3, Gpx8” value ([2]; liver transcriptome) was “restored expression of investigated genes to ND levels” and the “Serum levels of γ-glutamyltranspeptidase (GGT)” value ([2]; serum) was “decreased”. For the same molecule, the “Frequency of serious adverse events” value ([3]; 140 μg and 200 μg vs placebo) was “low and comparable across groups”, the “Low density lipoprotein-cholesterol (LDL-C)” value ([3]; 140 μg and 200 μg, 12 weeks) was “dose-related increase” and the “Share of patients with pruritus whose events were of mild (Grade 1) severity” value ([3]; both Tropifexor groups (140 μg and 200 μg)) was over 60%. The “Treatment discontinuation rate due to pruritus” value ([3]; tropifexor 140 μg) was 2%, the “ALT, LS mean absolute change from baseline to Week 12 (SE)” value ([3]; tropifexor 140 μg once daily) was −20.1 (4.57) U/L and the “Body weight, LS mean absolute change from baseline to Week 12 (SE)” value ([3]; tropifexor 140 μg once daily) was −2.46 (0.38) kg. The “GGT, LS mean absolute change from baseline to Week 12 (SE)” value ([3]; tropifexor 140 μg once daily) was −39.2 (3.70) U/L, the “Prespecified endpoints at week 12” value ([3]; tropifexor 200 μg) was “met” and the “Treatment discontinuation rate due to pruritus” value ([3]; tropifexor 200 μg) was 6%. For the same molecule, the “ALT, LS mean absolute change from baseline to Week 12 (SE)” value ([3]; tropifexor 200 μg once daily) was −23.6 (4.48) U/L, the “Body weight, LS mean absolute change from baseline to Week 12 (SE)” value ([3]; tropifexor 200 μg once daily) was −3.20 (0.37) kg and the “GGT, LS mean absolute change from baseline to Week 12 (SE)” value ([3]; tropifexor 200 μg once daily) was −40.9 (3.62) U/L.
